ChEMBL document CHEMBL1201862, “PubChem BioAssay data set” (2004)
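Step 1: Grow cells in 96-well plates. Step 2: Expose to compound for 48 hours at 5 concentrations. Step 3: Interpolate endpoints linearly; if unreached, use highest concentration. The concentration for 50% growth inhibition is given as GI50.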 The source made the active and inactive calls. No stated cut-off is given here; in the data, active = GI50 up to about 1.1 µM and inactive = higher.

Assays:
Assay in all cases: inhibition of tumour cell growth, NCI panel, 48 h
[1] = tested on: SK-MEL-2
[2] = tested on: UACC-257
[3] = tested on: SK-MEL-5
[4] = tested on: DMS-273
[5] = tested on: RPMI-8226
[6] = tested on: OVCAR-3
[7] = tested on: IGROV-1
[8] = tested on: HT-29
[9] = tested on: LXFL 529
[10] = tested on: M19-MEL
[11] = tested on: UACC-62
[12] = tested on: LOX IMVI
[13] = tested on: NCI-H522
[14] = tested on: HOP-62
[15] = tested on: UO-31
[16] = tested on: KM-20L2
[17] = tested on: HL-60
[18] = tested on: EKVX
[19] = tested on: COLO 205
[20] = tested on: SF-539
[21] = tested on: KM12
[22] = tested on: A498
[23] = tested on: SW-620
[24] = tested on: DMS-114
[25] = tested on: HCT-116
[26] = tested on: CCRF-CEM
[27] = tested on: NCI-H226
[28] = tested on: HOP-18
[29] = tested on: SNB-19
[30] = tested on: ACHN
[31] = tested on: NCI-H23
[32] = tested on: SNB-78
[33] = tested on: SK-MEL-28
[34] = tested on: SNB-75
[35] = tested on: MOLT-4
[36] = tested on: HCT-15
[37] = tested on: U-251
[38] = tested on: DLD-1
[39] = tested on: OVCAR-5
[40] = tested on: CAKI-1
[41] = tested on: RXF 393
[42] = tested on: TK-10
[43] = tested on: SF-268
[44] = tested on: SF-295
[45] = tested on: HOP-92
[46] = tested on: M14
[47] = tested on: A549
[48] = tested on: OVCAR-4
[49] = tested on: HCC 2998
[50] = tested on: 786-0
[51] = tested on: SK-OV-3
[52] = tested on: SN12C
[53] = tested on: NCI-H460
[54] = tested on: Malme-3M
[55] = tested on: K562
[56] = tested on: OVCAR-8
[57] = tested on: XF498

Measured: GI50

CC1=C[P+](Cc2ccccc2)(c2ccccc2)CC1 (stereo not given)
inactive: [1] > 100 µM | [2] 41.9 µM | [3] 21.5 µM | [4] 78 µM | [5] 25.7 µM | [6] 44.3 µM | [7] 81.1 µM | [8] 66.4 µM | [9] 45.4 µM | [10] 46.8 µM | [11] 63.7 µM | [12] 90.4 µM | [13] 41.7 µM | [14] > 100 µM | [15] > 100 µM | [16] 75.2 µM | [17] 34 µM | [18] 54.6 µM | [19] 31.6 µM | [20] > 100 µM | [21] > 100 µM | [22] > 100 µM | [23] > 100 µM | [24] 46.9 µM | [25] > 100 µM | [26] > 100 µM | [27] > 100 µM | [28] > 100 µM | [29] > 100 µM

Cc1ccc(S(=O)(=O)N/N=C\c2c3ccccc3[n+](C)c3ccccc23)cc1
inactive: [1] 43.8 µM | [30] 41.9 µM | [31] 21.1 µM | [2] 30.8 µM | [3] 29.4 µM | [4] 22.1 µM | [32] 61.7 µM | [33] 31.5 µM | [5] 29.8 µM | [34] 20 µM | [6] 26.1 µM | [7] 29.6 µM | [35] 17.6 µM | [8] 19.4 µM | [10] 32.1 µM | [11] 19.8 µM | [12] 11.2 µM | [13] 25.8 µM | [14] 34.1 µM | [15] 26.9 µM | [37] 24 µM | [38] 38.1 µM | [39] > 100 µM | [16] 31.7 µM | [17] 22 µM | [18] 54.6 µM | [20] 22.4 µM | [40] 17.7 µM | [41] 15.9 µM | [42] 48.3 µM | [43] 29.2 µM | [44] 13.8 µM | [45] 17.1 µM | [46] 26 µM | [21] 34.6 µM | [47] 20.8 µM | [22] 20.4 µM | [23] 33.8 µM | [48] 27.6 µM | [24] 24.9 µM | [25] 30.5 µM | [26] 15.3 µM | [49] 92.7 µM | [50] 28.1 µM | [51] > 100 µM | [52] 48.6 µM | [53] 19.8 µM | [54] 32.4 µM | [27] 25 µM | [55] 15.6 µM | [56] 38.5 µM | [29] 24.9 µM
25.8 µM: [36]

c1cnc2nc3n(c2c1)CSC3
inactive: [1] > 100 µM | [30] > 100 µM | [31] > 100 µM | [2] > 100 µM | [3] > 100 µM | [32] > 100 µM | [33] > 100 µM | [5] > 100 µM | [34] > 100 µM | [6] > 100 µM | [7] > 100 µM | [35] > 100 µM | [8] > 100 µM | [9] > 100 µM | [10] > 100 µM | [11] > 100 µM | [12] > 100 µM | [13] > 100 µM | [14] > 100 µM | [15] > 100 µM | [37] > 100 µM | [38] > 100 µM | [57] > 100 µM | [39] > 100 µM | [16] > 100 µM | [17] > 100 µM | [18] > 100 µM | [19] > 100 µM | [20] > 100 µM | [40] > 100 µM | [41] > 100 µM | [42] > 100 µM | [43] > 100 µM | [44] > 100 µM | [45] > 100 µM | [46] > 100 µM | [21] > 100 µM | [47] > 100 µM | [22] > 100 µM | [23] > 100 µM | [48] > 100 µM | [24] > 100 µM | [26] > 100 µM | [49] > 100 µM | [50] > 100 µM | [51] > 100 µM | [52] > 100 µM | [53] > 100 µM | [54] > 100 µM | [27] > 100 µM | [55] > 100 µM | [56] > 100 µM
> 100 µM: [36]
